Laboratory results reported in ChEMBL document CHEMBL5727310, “Substituted morpholine derivatives having activity against pain” (2019).

Molecular target: Sigma non-opioid intracellular receptor 1 (Homo sapiens, UniProt Q99720)
Test: Receptor Radioligand Assay: To investigate binding properties of test compounds to human σ1 receptor, transfected HEK-293 membranes and [3H](+)-pentazocine (Perkin Elmer, NET-1056), as the radioligand, were used. The assay was carried out with 7 μg of membrane suspension, 5 nM of [3H](+)-pentazocine in either absence or presence of either buffer or 10 μM Haloperidol for total and non-specific binding, respectively. Binding buffer contained Tris-HCl 50 mM at pH 8. Plates were incubated at 37° C. for 120 minutes. After the incubation period, the reaction mix was then transferred to MultiScreen HTS, FC plates (Millipore), filtered and plates were washed 3 times with ice-cold 10 mM Tris-HCL (pH7.4). Filters were dried and counted at approximately 40% efficiency in a MicroBeta scintillation counter (Perkin-Elmer) using EcoScint liquid scintillation cocktail

Sigma non-opioid intracellular receptor 1, sequence (Q99720 whole entry): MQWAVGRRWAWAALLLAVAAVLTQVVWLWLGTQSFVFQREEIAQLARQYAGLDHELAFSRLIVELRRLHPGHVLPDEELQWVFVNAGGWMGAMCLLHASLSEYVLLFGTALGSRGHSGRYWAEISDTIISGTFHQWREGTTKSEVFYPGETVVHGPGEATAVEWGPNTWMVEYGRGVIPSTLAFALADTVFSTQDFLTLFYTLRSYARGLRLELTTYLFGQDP

Compound CCN1CC(C2CCN(CCC(C)C)CC2)OC2(CC2)C1 (stereo unspecified) has a Ki of less than 500 nM.
